Consider six compounds from patent publication US9018175B2 (Takeda GmbH, priority 2009, dated 2015).

Experiment [1] addresses T1, human PDE5 (Homo sapiens, UniProt O76074).
T1 construct: from tissue; host or cells: human platelets from fresh donor blood (10,000 g supernatant of sonicated platelets)
As to the kind of experiment: Inhibition of PDE5 activity (SPA, [3H]cGMP, platelet lysate). The following applies: PDE5 from human platelet lysate; values given as bins; read-out: PDE5A inhibitory values measured as −logIC50 (converted). Type of experiment: biochemical. As for the experimental part:
As a source for human PDE5, platelets are used. For that purpose, 150 ml fresh blood from human donors anticoagulated with citrate [final concentration 0.3% (w/v)] is centrifuged at 200 g for 10 min to obtain the so-called platelet-rich-plasma (PRP) as a supernatant. 1/10 volume of ACD solution (85 mM Na3-citrate, 111 mM D-glucose, 71 mM citric acid, pH 4.4) is added to 9/10 volume of PRP. After centrifugation (1,400 g, 10 min) the cell pellet is resuspended in 3 ml homogenization buffer (NaCl 140 mM, KCl 3.8 mM, EGTA (ethylene glycol tetraacetic acid) 1 mM, MgCl2 1 mM, Tris-HCl 20 mM, beta-mercaptoethanol 1 mM, pH 8.2) plus protease-inhibitor mix giving rise to the final concentrations of 0.5 mM Pefablock (Roche), 10 μM Leupeptin, 5 μM Trypsininhibitor, 2 mM Benzamidin and 10 μM Pepstatin A. The suspension is sonified and thereafter centrifuged for 15 min at 10,000 g. The resulting supernatant (platelet lysate) is used for enzymatic testings.
PDE5 activities were measured in a 96-well platform using SPA (scintillation proximity assay) yttrium silicate beads (RPNQ1050 from GE Healthcare). In a first step the PDE activity operates hydrolysis of either [^3H] cGMP (substrate) into [^3H] 5′GMP. In a second step substrate and product are distinguished following addition of SPA yttrium silicate beads. Indeed, in the presence of zinc sulphate the linear [^3H] […] Close proximity of bound [^3H] […] The test volume is 100 pl and contains 20 mM Tris buffer (pH 7.4), 0.1 mg of BSA (bovine serum albumin)/ml, 5 mM Mg^2+, 1 μM motapizone (PDE3 Inhibitor), 10 nM PDE2 inhibitor 2-(3,4-dimethoxybenzyl)-7-[(1R,2R)-2-hydroxy-1-(2-phenylethyl)propyl]-5-methylimidazo[5,1-f][1,2,4]triazin-4(3H)-one, […] (cyclic guanosine monophosphate) (including about 50,000 cpm of [3H]cGMP as a tracer), 1 pl of the respective compound dilution in dimethylsulfoxide (DMSO) and sufficient PDE5-containing platelet lysat (10,000, g supernatant, see above) to ensure that 10-20 wt % of the cGMP is converted under the said experimental conditions. […] After a preincubation of 5 min at 37° C., the reaction is started by adding the substrate (cGMP) and the assay is incubated for a further 15 min; after that, it is stopped by adding SPA beads (50 pl). In accordance with the manufacturer's instructions, the SPA beads had previously been resuspended in water, but are then diluted 1:3 (v/v) in water; the diluted solution also contains 3 mM […]3-isobutyl-1-methylxanthine (IBMX) to ensure a complete PDE activity stop. After the beads have been sedimented (>30 min), the MTP's are analyzed in commercially available luminescence detection devices. The corresponding IC50 values of the compounds for the inhibition of PDE activity are determined from the concentration-effect curves by means of non-linear regression.

The target in experiment [2] is T2, PDE4B1 (Homo sapiens, UniProt Q07343).
T2 construct: made in house; host or cells: SF21 insect cells (baculovirus; pCR-Bac vector)
As to the kind of experiment: Inhibition of PDE4B1 activity (SPA, [3H]cAMP). The following applies: recombinant PDE4B1 expressed in SF21 cells; 0.5 pM [sic] cAMP; values given as bins; read-out: PDE4B1 inhibitory values measured as −logIC50 (converted). It counts as biochemical. Here is the method:
The PDE4B1 (GB no. L20966) was a gift of Prof. M. Conti (Stanford University, USA). It was amplified from the original plasmid (pCMV5) via PCR with primers Rb18 (5′-[…]-3′) and Rb10 (5′-[…]-3′) and cloned into the pCR-Bac vector (Invitrogen, Groningen, NL).
The recombinant baculovirus was prepared by means of homologous recombination in SF9 insect cells. The expression plasmids were cotransfected with Baculo-Gold DNA (Pharmingen, Hamburg) using a standard protocol (Pharmingen, Hamburg). Wt virus-free recombinant virus supernatants were selected using plaque assay methods. After that, high-titre virus supernatants were prepared by amplifying 3 times. PDE4B1 was expressed in SF21 cells by infecting 2×10^6 cells/ml with an MOI (multiplicity of infection) between 1 and 10 in the serum-free medium Insect Express Sf9-S2 (PAA, Pasching, Austria). The cells were cultured at 28° C. for 48-72 hours, after which they were pelleted for 5-10 min at 1000×g and 4° C.
The SF21 insect cells were resuspended, at a concentration of approx. 10^7 cells/ml, in ice-cold (4° C.) homogenization buffer (20 mM Tris, pH 8.2, containing the following additions: 140 mM NaCl, 3.8 mM KCl, 1 mM EGTA, 1 mM MgCl2, 10 mM e-mercaptoethanol, 2 mM benzamidine, 0.4 mM Pefablock, 10 pM leupeptin, 10 pM pepstatin A, 5 pM trypsin inhibitor) and disrupted by ultrasonication. The homogenate was then centrifuged for 10 min at 1000, g and the supernatant was stored at −80° C. until subsequent use (see below). The protein content was determined by the Bradford method (BioRad, Munich) using BSA as the standard.
PDEB1 activities were measured in a 96-well platform using SPA (scintillation proximity assay) yttrium silicate beads (RPNQ1050 from GE Healthcare). In a first step the PDE activity operates hydrolysis of either [^3H] cAMP (substrate) into [^3H] 5′AMP. In a second step substrate and product are distinguished following addition of SPA yttrium silicate beads. Indeed, in the presence of zinc sulphate the linear [^3H] […] Close proximity of bound [^3H] […] The test volume is 100 pl and contains 20 mM Tris buffer (pH 7.4), 0.1 mg/ml of BSA, 5 mM Mg^2+, […] (including about 50,000 cpm of [3H]cAMP), 1 pl of the respective substance dilution in DMSO and sufficient recombinant PDE (1000, g supernatant, see above) to ensure that 10-20% of the cAMP is converted under the said experimental conditions. […] After a preincubation of 5 min at 37° C., the reaction is started by adding the substrate (cAMP) and the assays are incubated for a further 15 min; after that, they are stopped by adding SPA beads (50 pl). In accordance with the manufacturer's instructions, the SPA beads had previously been resuspended in water, but were then diluted 1:3 (v/v) in water; the diluted solution also contains 3 mM IBMX to ensure a complete PDE activity stop. After the beads have been sedimented (>30 min), the MTP's are analyzed in commercially available luminescence detection devices. The corresponding IC50 values of the compounds for the inhibition of PDE4B1 activity are determined from the concentration-effect curves by means of non-linear regression.

T2 sequence (Q07343 whole entry): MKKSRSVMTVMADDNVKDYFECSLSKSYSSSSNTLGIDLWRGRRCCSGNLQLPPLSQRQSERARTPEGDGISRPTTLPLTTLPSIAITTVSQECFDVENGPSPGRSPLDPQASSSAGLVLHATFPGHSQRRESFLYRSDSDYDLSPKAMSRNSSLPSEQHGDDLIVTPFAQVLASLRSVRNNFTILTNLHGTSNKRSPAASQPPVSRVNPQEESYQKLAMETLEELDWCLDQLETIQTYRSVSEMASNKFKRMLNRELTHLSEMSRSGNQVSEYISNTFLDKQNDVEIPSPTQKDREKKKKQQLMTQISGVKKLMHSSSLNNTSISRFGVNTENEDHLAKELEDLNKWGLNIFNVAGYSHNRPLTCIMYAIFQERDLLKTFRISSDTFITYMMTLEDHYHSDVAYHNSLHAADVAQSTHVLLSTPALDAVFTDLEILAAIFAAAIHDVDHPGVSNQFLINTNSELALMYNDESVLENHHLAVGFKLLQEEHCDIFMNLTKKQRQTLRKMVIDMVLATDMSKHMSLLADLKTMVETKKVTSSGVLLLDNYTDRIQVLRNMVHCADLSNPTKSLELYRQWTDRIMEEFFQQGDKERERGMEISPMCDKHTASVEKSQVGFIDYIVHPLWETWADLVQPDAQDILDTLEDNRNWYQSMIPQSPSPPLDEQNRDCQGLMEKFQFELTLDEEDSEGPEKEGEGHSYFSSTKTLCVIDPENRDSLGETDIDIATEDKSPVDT

Regarding `CCOc1cc2c(cc1OC)C(c1cccc(C(=O)N3CCC(n4c(=O)c5sc(-c6cc(F)ccc6OC)cc5n(Cc5nnn(CC)n5)c4=O)CC3)c1)=N[C@@H]1CCSC[C@H]21` [Example 35, 3-[1-({3-[(4aR,10bR)-9-ethoxy-8-methoxy-3,4,4a,10b-tetrahydro-1H-thiopyrano[4,3-c]isoquinolin-6-yl]phenyl}carbonyl)piperidin-4-yl]-1-[(2-ethyl-2H-tetrazol-5-yl)methyl]-6-(5-fluoro-2-methoxyphenyl)thieno[3,2-d]pyrimidine-2,4(1H,3H)-dione], the IC50 in experiment [1] was less than 10 nM; in experiment [2], 1 to 10 nM.
The like results for `CCOc1cc2c(cc1OC)C(c1ccc(C(=O)N3CCC(n4c(=O)c5sc(-c6ccccc6)cc5n(Cc5ncc(CC)o5)c4=O)CC3)cc1)=N[C@@H]1CCSC[C@H]21` [Example 1, 3-[1-({4-[(4aR,10bR)-9-ethoxy-8-methoxy-3,4,4a,10b-tetrahydro-1H-thiopyrano[4,3-c]isoquinolin-6-yl]phenyl}carbonyl)piperidin-4-yl]-1-[(5-ethyl-1,3-oxazol-2-yl)methyl]-6-phenylthieno[3,2-d]pyrimidine-2,4(1H,3H)-dione] were, in that order, less than 10 nM and 1 to 10 nM.
The like results for `CCOc1cc2c(cc1OC)C(c1ccc(C(=O)N3CCC(n4c(=O)c5sc(-c6ccccc6)cc5n(Cc5cnn(CC)c5)c4=O)CC3)cc1)=N[C@@H]1CCSC[C@H]21` [Example 17, 3-[1-({4-[(4aR,10bR)-9-ethoxy-8-methoxy-3,4,4a,10b-tetrahydro-1H-thiopyrano[4,3-c]isoquinolin-6-yl]phenyl}carbonyl)piperidin-4-yl]-1-[(1-ethyl-1H-pyrazol-4-yl)methyl]-6-phenylthieno[3,2-d]pyrimidine-2,4(1H,3H)-dione] were, in that order, more than 100 nM and 1 to 10 nM.
The corresponding values for `CCOc1cc2c(cc1OC)C(c1ccc(C(=O)N3CCC(n4c(=O)c5sc(-c6ccccc6)cc5n(Cc5cc(CC)no5)c4=O)CC3)cc1)=N[C@@H]1CCSC[C@H]21` [Example 3, 3-[1-({4-[(4aR,10bR)-9-ethoxy-8-methoxy-3,4,4a,10b-tetrahydro-1H-thiopyrano[4,3-c]isoquinolin-6-yl]phenyl}carbonyl)piperidin-4-yl]-1-[(3-ethylisoxazol-5-yl)methyl]-6-phenylthieno[3,2-d]pyrimidine-2,4(1H,3H)-dione] are less than 10 nM and 1 to 10 nM.
Take `CCOc1cc2c(cc1OC)C(c1ccc(C(=O)N3CCC(n4c(=O)c5sc(-c6ccc(F)cc6OC)cc5n(Cc5nc(COC)no5)c4=O)CC3)cc1)=N[C@@H]1CCSC[C@H]21` [Example 44, 3-[1-({4-[(4aR,10bR)-9-ethoxy-8-methoxy-3,4,4a,10b-tetrahydro-1H-thiopyrano[4,3-c]isoquinolin-6-yl]phenyl}carbonyl)piperidin-4-yl]-6-(4-fluoro-2-methoxyphenyl)-1-{[3-(methoxymethyl)-1,2,4-oxadiazol-5-yl]methyl}thieno[3,2-d]pyrimidine-2,4(1H,3H)-dione]: the IC50 is less than 10 nM in experiment [1] and 1 to 10 nM in experiment [2].
Consider `CCOc1cc2c(cc1OC)C(c1ccc(C(=O)N3CCC(n4c(=O)c5sc(-c6ccccc6)cc5n(Cc5cnn(CC)n5)c4=O)CC3)cc1)=N[C@@H]1CCSC[C@H]21` [Example 21, 3-[1-({4-[(4aR,10bR)-9-ethoxy-8-methoxy-3,4,4a,10b-tetrahydro-1H-thiopyrano[4,3-c]isoquinolin-6-yl]phenyl}carbonyl)piperidin-4-yl]-1-[(2-ethyl-2H-1,2,3-triazol-4-yl)methyl]-6-phenylthieno[3,2-d]pyrimidine-2,4(1H,3H)-dione], for which the IC50 was 10 to 100 nM in experiment [1] and 1 to 10 nM in experiment [2].
